Reference: patent US8785431B2, “Prodrugs of (1S,9S)-9-[[(1S)-1-carboxy-3-phenylpropyl]amino]octahydro-10-oxo-6H-pyridazino[1,2-a][1,2]diazepine-1-carboxylic acid and their use in transdermal therapeutic systems” (Hexal AG, priority 2011, dated 2014)

Columns and labels:
in vitro = in vitro ADME
Method: (§1) To assess whether the synthesised cilazapril prodrugs undergo enzymatic cleavage, metabolic studies were carried out in three well established incubation media for the investigation of transdermal administration.
Human plasma (CPD plasma, 3.82 U/ml), which contains i.a. cholinesterase and acetylcholinesterase, was used as the second incubation media.
(§2) Incubation mixtures were prepared by adding a respective prodrug stock solution to porcine skin homogenate (PSH), human plasma and buffered porcine liver esterase (PLE), respectively.
(§3) All samples were incubated in a water bath at 37° C. After 72 h samples of the incubation mixtures (200 μl) were collected. To all samples 400 μl of ice-cold acetonitrile were added. After vortex mixing the samples were allowed to stand in a refrigerator for approx. 30 min. The samples were then centrifuged at 13000 rpm (13000 g) for 5 min. The supernatants were collected and stored at −78° C. until HPLC analysis. To 200 μl of each supernatant 400 μl of aqueous 0.05% trifluoroacetic acid were added prior to injection.
(§4) The kinetics of the hydrolysis of the cilazapril prodrugs in the different incubation media was analysed by HPLC or HPLC-MS.
(§5) The rate of hydrolysis of cilazapril, of some cilazapril prodrugs and cilazapril ethyl ester in porcine skin homogenate, human plasma and buffered porcine liver esterase at 37° C. are presented in Table 4.

[1] = Rate of hydrolysis in porcine skin homogenate at 37° C. (HPLC or HPLC-MS); assay type: in vitro ADME; details: for half-life: pig; for reaction kinetics in porcine skin homogenate: in words
Method: as §1
Due to its similarities with human skin, in terms of enzyme activity and distribution, a porcine skin homogenate (25% w/w in PBS-buffer, 0.65 U/ml, 1.3 mg/ml (Bradford)) was used for the metabolic studies.
as §2, §3, §4, §5

[2] = Metabolic studies in enzyme-containing incubation mixtures (porcine skin homogenate, human plasma, buffered porcine liver esterase), results in words; assay type: in vitro ADME; details: 37° C.; for enzymatic cleavage / hydrolysis to cilazaprilate: incubation mixtures; for degradation / reaction kinetics of enzymatic hydrolysis: enzyme-containing incubation mixtures
Method: as §1
(§6) Buffered porcine liver esterase (suspension in 3.2 M (NH4)2SO4 solution, pH 8, 12 mg prot./ml (Biuret), 260 U/mg prot.) was chosen as the third incubation media, because porcine liver esterase mimics the carboxylesterase present in the human skin.
as §2
as §3, with “After 72 h samples of the incubation mixtures (200 μl) were collected.” left out
as §4

porcine liver esterase = assay: Rate of hydrolysis in buffered porcine liver esterase at 37° C. (HPLC or HPLC-MS); assay type: in vitro ADME; details: for half-life: pig
Method: as §1, §6, §2, §3, §4, §5

[3] = Stability in transdermal therapeutic system (10% in BioPSA Hex 7-4302), extraction and HPLC; assay type: physicochemical; details: TTS
Method: The stability of the prodrugs in the transdermal therapeutic system was determined after different storage times and temperatures by extraction of the transdermal therapeutic system with an organic solvent and subsequent analysis by HPLC.
The stability of the cilazapril prodrugs (1) and (2) in therapeutic transdermal systems was controlled at 25° C./60% relative humidity and compared with the cilazapril in a TTS having the same adhesive layer.

[4] = Stability of 10% cilazapril in an acrylic adhesive (Durotak 87-4098, Henkel); assay type: physicochemical; details: 10% in acrylic adhesive Durotak 87-4098
Text: Instability in a semisolid dosage form is also a problem with cilazapril. Although cilazapril has a more rigid structure than other ACE-inhibitors and has no distinct tendency to intramolecular cyclisation, it presents stability problems in adhesive layers of transdermal therapeutic systems as shown in Table 1.

[5] = In vitro skin permeation from TTS through human skin (two-compartment diffusion cell); assay type: in vitro ADME; details: TTS on human skin, 32±1° C., 96 hours, FIG. 1
Method: Furthermore the permeability of the prodrugs through the skin was measured by in vitro skin permeation. The in vitro skin permeation of the prodrugs (1), (2) and (6) and of cilazapril through human skin was evaluated using the TTS as prepared in any one of examples 8, 9, and 11.
The flux was determined by using a two-compartment diffusion cell with a section of human skin mounted between the cell halves. A TTS was adhered to one side of the skin and a drug-receiving medium was placed on the receptor-side of the cell. The apparatus was placed in a water bath maintained at 32±1° C. Samples of the receptor medium were collected over a period of 96 hours for HPLC analysis of drug concentration.

[6] = Crystallization in the TTS; assay type: physicochemical; details: after 14 months
Text: Moreover, the TTSs with the prodrugs (1), (2) and (6) were examined with regard to crystallization.

[7] = porcine skin homogenate, 37° C.
[8] = 9 months, 25° C./60% relative humidity

| Structure (SMILES) | enzymatic cleavage / hydrolysis to cilazaprilate [2] | assay [%] ([3]; 0 months, uncontrolled) | assay [%] [3, 8] | half-life [1, 7] | half-life (porcine liver esterase) | f50% (h), time by which 50% of total cilazaprilate has been formed (in vitro; human) | half-life (in vitro; human, plasma) | reaction kinetics in porcine skin homogenate [1] | in vitro skin flux compared to the cilazapril TTS [5] | degradation / reaction kinetics of enzymatic hydrolysis [2] | crystallization in the TTS [6] | other results |
| --- | --- | --- | --- | --- | --- | --- | --- | --- | --- | --- | --- | --- |
| CCOC(=O)[C@H](CCc1ccccc1)N[C@H]1CCCN2CCC[C@@H](C(=O)OCC)N2C1=O [cilazapril ethyl ester, reference compound] | no hydrolysis to cilazaprilate was detectable | – | – | – | – | – | – | – | – | – | – | t1/2 (in vitro; human plasma, 37° C.): 11.9 h; t1/2 [1, 7]: 0.35 h; enzymatic cleavage / hydrolysis to cilazaprilate ([2]; listed as ethyl ester of cilazapril): stable against enzymatic cleavage; t1/2 (porcine liver esterase): 0.69 h |
| CCOC(=O)[C@H](CCc1ccccc1)N[C@H]1CCCN2CCC[C@@H](C(=O)O)N2C1=O [cilazapril, (1S,9S)-9-[[(1S)-1-ethoxycarbonyl-3-phenylpropyl]amino]octahydro-10-oxo-6H-pyridazino[1,2-a][1,2]diazepine-1-carboxylic acid, reference compound] | – | 99.8% | 97.0% | 9.4 h | 3.3 h | – | – | – | – | – | – | half-life (in vitro; human plasma, 37° C., read-out: t1/2 (converted)): 88.8 h; assay [%] ([4]; 0 months, uncontrolled): 98.1%; assay [%] ([4]; 3 weeks, 25° C./60% relative humidity): 98.0%; assay [%] ([4]; 3 weeks, 40° C./75% relative humidity): 95.9%; assay [%] ([4]; 7 months, 25° C./60% relative humidity): 91.9%; assay [%] ([4]; 7 months, 40° C./75% relative humidity): 80.4% |
| CCOC(=O)OC(C)OC(=O)[C@@H]1CCCN2CCCC(N[C@@H](CCc3ccccc3)C(=O)OCC)C(=O)N12 (stereo partly drawn) [compound 1, (1S,9S)-1-(ethoxycarbonyloxy)ethyl 9-[[(1S)-1-ethoxycarbonyl-3-phenylpropyl]amino]-10-oxooctahydro-1H-pyridazino[1,2-a][1,2]diazepine-1-carboxylate] | formation of cilazaprilate as the final metabolite | 99.3% | 98.0% | 0.43 h | 0.67 h | 154 h | 0.58 h | fast reaction kinetics | increase in in vitro skin flux | fast degradation | none of the TTS showed crystallization | – |
| CCOC(=O)[C@H](CCc1ccccc1)NC1CCCN2CCC[C@@H](C(=O)OC(C)OC(=O)OC3CCCCC3)N2C1=O (stereo partly drawn) [compound 2, (1S,9S)-1-(cyclohexyloxycarbonyloxy)ethyl 9-[[(1S)-1-ethoxycarbonyl-3-phenylpropyl]amino]-10-oxooctahydro-1H-pyridazino[1,2-a][1,2]diazepine-1-carboxylate] | formation of cilazaprilate as the final metabolite | 100.0% | 98.3% | 1.4 h | 4.2 h | 228 h | 3.2 h | fast reaction kinetics | increase in in vitro skin flux | fast degradation | none of the TTS showed crystallization | – |
| CCOC(=O)[C@H](CCc1ccccc1)NC1CCCN2CCC[C@@H](C(=O)OC(C)OC(=O)OC(C)C)N2C1=O (stereo partly drawn) [compound 3, (1S,9S)-1-(isopropyloxycarbonyloxy)ethyl 9-[[(1S)-1-ethoxycarbonyl-3-phenylpropyl]amino]-10-oxooctahydro-1H-pyridazino[1,2-a][1,2]diazepine-1-carboxylate] | formation of cilazaprilate as the final metabolite | – | – | 1 h | 1.5 h | 108 h | 1.9 h | – | – | fast degradation | – | – |
| CCOC(=O)[C@H](CCc1ccccc1)NC1CCCN2CCC[C@@H](C(=O)OC(C)OC(C)=O)N2C1=O (stereo partly drawn) [compound 4, (1S,9S)-1-(acetoxy)ethyl 9-[[(1S)-1-ethoxycarbonyl-3-phenylpropyl]amino]-10-oxooctahydro-1H-pyridazino[1,2-a][1,2]diazepine-1-carboxylate] | formation of cilazaprilate as the final metabolite | – | – | 0.5 h | 0.63 h | 91.2 h | 0.68 h | – | – | fast degradation | – | – |
| CCOC(=O)[C@H](CCc1ccccc1)NC1CCCN2CCC[C@@H](C(=O)OC(C)OC(=O)C(C)(C)C)N2C1=O (stereo partly drawn) [compound 5, (1S,9S)-1-(2,2-dimethylpropanoyloxy)ethyl 9-[[(1S)-1-ethoxycarbonyl-3-phenylpropyl]amino]-10-oxooctahydro-1H-pyridazino[1,2-a][1,2]diazepine-1-carboxylate] | formation of cilazaprilate as the final metabolite | – | – | 1 h | 3.8 h | 33.6 h | 5.1 h | – | – | fast degradation | – | – |
| CCOC(=O)[C@H](CCc1ccccc1)N[C@H]1CCCN2CCC[C@@H](C(=O)OCCN3CCOCC3)N2C1=O [compound 6, (1S,9S)-2-morpholinoethyl 9-[[(1S)-1-ethoxycarbonyl-3-phenylpropyl]amino]-10-oxooctahydro-1H-pyridazino[1,2-a][1,2]diazepine-1-carboxylate] | – | 98.1% | 94.7% | 0.5 h | 0.95 h | 10.8 h | 1.3 h | fast reaction kinetics | increase in in vitro skin flux | fast reaction kinetics | none of the TTS showed crystallization | – |
| CCOC(=O)[C@H](CCc1ccccc1)NC1CCCN2CCC[C@@H](C(=O)OC(C)OC(=O)CN3CCOCC3)N2C1=O (stereo partly drawn) [compound 7, (1S,9S)-1-(2-morpholinoacetoxy)ethyl 9-[[(1S)-1-ethoxycarbonyl-3-phenylpropyl]amino]-10-oxooctahydro-1H-pyridazino[1,2-a][1,2]diazepine-1-carboxylate] | – | – | – | 0.33 h | 0.77 h | 132 h | 0.83 h | – | – | fast reaction kinetics | – | – |
